# How the values were obtained:
# DrmAB [1] = molecular target: T1, DrmAB (Serratia, UniProt A0A979HMQ0); assay: ATPase assay, absorbance at […] nm; format: biochemical; conditions: needs unmethylated DNA stem loop; mere turnover
# T1 construct: DrmAB heterodimer (~1:1, ~220 kDa) co-expressed in E. coli BL21-AI; Ni-NTA and size exclusion
# T1 sequence (A0A979HMQ0 1-1325): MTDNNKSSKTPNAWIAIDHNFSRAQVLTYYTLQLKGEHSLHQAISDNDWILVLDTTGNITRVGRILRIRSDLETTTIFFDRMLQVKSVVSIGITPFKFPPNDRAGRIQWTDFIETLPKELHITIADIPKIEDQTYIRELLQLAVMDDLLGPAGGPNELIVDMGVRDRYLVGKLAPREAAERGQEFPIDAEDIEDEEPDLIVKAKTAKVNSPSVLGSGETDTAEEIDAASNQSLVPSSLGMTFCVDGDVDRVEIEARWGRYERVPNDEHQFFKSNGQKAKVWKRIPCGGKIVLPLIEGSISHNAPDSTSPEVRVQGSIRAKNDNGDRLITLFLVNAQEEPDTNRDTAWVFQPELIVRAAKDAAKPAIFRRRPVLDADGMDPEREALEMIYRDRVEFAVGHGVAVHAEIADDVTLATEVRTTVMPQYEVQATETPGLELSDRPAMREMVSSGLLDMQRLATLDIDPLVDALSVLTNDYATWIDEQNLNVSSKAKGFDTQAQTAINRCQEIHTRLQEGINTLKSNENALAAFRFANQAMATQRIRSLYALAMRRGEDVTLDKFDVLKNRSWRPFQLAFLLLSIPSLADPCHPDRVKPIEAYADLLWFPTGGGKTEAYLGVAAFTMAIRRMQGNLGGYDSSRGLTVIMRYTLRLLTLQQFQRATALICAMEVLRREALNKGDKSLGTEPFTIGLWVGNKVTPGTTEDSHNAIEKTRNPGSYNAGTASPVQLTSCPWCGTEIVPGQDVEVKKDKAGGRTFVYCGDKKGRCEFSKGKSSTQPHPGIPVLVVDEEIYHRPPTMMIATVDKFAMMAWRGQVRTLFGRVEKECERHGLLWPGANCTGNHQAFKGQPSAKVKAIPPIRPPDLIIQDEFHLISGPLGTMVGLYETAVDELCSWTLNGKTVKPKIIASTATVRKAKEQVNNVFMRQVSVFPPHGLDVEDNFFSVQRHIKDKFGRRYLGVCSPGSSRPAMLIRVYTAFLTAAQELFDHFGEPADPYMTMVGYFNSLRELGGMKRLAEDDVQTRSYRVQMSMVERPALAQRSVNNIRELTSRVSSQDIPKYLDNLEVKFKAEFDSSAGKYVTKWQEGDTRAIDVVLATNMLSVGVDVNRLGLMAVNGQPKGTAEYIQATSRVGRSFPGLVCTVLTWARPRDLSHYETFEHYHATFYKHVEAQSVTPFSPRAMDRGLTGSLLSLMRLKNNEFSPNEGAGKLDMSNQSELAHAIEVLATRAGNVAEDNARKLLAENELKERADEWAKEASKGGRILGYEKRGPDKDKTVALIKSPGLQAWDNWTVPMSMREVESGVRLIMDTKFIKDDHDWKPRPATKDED
# T1 sequence (A0A979HMQ1 1-619 partner): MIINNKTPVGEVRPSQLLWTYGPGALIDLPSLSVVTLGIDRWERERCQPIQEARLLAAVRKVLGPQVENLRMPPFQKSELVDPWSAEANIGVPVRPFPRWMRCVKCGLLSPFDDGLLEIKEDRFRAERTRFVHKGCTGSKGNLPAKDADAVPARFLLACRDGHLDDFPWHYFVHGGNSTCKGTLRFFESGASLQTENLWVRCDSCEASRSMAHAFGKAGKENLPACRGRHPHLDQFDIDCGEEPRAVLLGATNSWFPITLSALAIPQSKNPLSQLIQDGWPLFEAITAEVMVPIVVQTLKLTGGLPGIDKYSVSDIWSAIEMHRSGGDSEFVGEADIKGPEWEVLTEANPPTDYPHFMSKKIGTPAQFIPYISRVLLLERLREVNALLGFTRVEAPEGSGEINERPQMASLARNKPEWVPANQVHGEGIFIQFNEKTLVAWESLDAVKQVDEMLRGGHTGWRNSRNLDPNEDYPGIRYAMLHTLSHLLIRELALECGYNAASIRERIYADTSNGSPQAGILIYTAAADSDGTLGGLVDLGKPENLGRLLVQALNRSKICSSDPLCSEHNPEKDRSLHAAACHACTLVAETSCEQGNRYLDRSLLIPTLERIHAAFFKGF
# [2] = molecular target: DrmB (Serratia sp. SCBI DISARM DUF1998-containing protein) (Serratia sp. SCBI); assay: co-purification (Ni-NTA, then SEC); proteins co-expressed in E. coli BL21-AI; His6-DrmB captured on Ni-NTA (25 mM HEPES pH 8, 600 mM NaCl), then HiLoad 16/600 Superdex 200 (25 mM HEPES pH 8, 150 mM NaCl, 5% glycerol, 1 mM DTT), 4 °C; fractions checked by SDS-PAGE
# DrmAB [3] = molecular target: T1, DrmAB; assay: cryo-EM structure ([…]-3.[…] A); format: binding; conditions: 1 mM ADP, 10 uM DrmAB; pH 7.4, ~25 C; canonical ATP site between RecA1 and RecA2 of DrmA; also in DNA-bound complex 7S9W
compound,measurement,setting,value
Nc1ncnc2c1ncn2[C@@H]1O[C@H](COP(=O)(O)OP(=O)(O)OP(=O)(O)O)[C@@H](O)[C@H]1O [ATP],"ATPase assay, absorbance at 360 nm",DrmAB [1],Robust ATPase activity is strongly stimulated by unmethylated DNA
DrmA (Serratia sp. SCBI DISARM helicase) (natural protein),stoichiometry N,[2],1
Nc1ncnc2c1ncn2[C@@H]1O[C@H](COP(=O)(O)OP(=O)(O)O)[C@@H](O)[C@H]1O [ADP],cryo-EM structure (3.3-3.4 A),DrmAB [3],We observed strong density corresponding to ADP within our DNA-bound (Fig. 2e) and DNA-free maps

# From paper PMC9142583, “Structural basis for broad anti-phage immunity by DISARM” (Nature Communications, 2022)
